According to PMC11219833, “Design and radiosynthesis of class-IIa HDAC inhibitor with high molar activity via repositioning the ^18F-radiolabel” (Scientific Reports, 2024):

Experiments:
[1] = target: T1, recombinant human HDAC5 (Homo sapiens, UniProt Q9UQL6); experiment: HDAC isoform inhibition fluorogenic assay (BPS Bioscience kit); assay type: biochemical
T1 construct: purchased BPS Bioscience, Inc
Source text: (§1) We utilized the well-established fluorogenic assay to screen NT376 against recombinant human HDAC isoforms and against endogenous HDACs in HT-29 cells. The class IIa HDAC fluorogenic assay functions in a two-step process: first, the class IIa HDAC removes the trifluoroacetate (TFA) from TFA-lysine substrate to generate free lysine which is recognized by trypsin and releases a fluorescent fluorophore (intact substrate is not recognized by trypsin) that can be detected using microplate reader. The IC50 was determined using nonlinear fit curves (GraphPad Prism) (% HDAC activity inhibition vs. compound concentration). The IC50 measurements were performed in triplicates and experiments were repeated twice with known HDAC inhibitors NT160 and SAHA used as positive and negative controls respectively.
(§2) Preparation of NT376: A 1.0 mM stock solution of NT376 was prepared in 100% DMSO. 11-dilutions of NT376 were then prepared in HDAC assay buffer with the DMSO adjusted to 2.5% final concentration in the assay medium.
(§3) NT376 was screened against recombinant human HDACs isoforms using the commercially available HDACs enzyme assay kits (BPS Bioscience, Inc.). The experiments were performed according to the manufacturer protocol.

[2] = target: T2, recombinant human HDAC11 (Homo sapiens, UniProt Q96DB2); experiment: as above; assay type: biochemical; conditions: class-IV
T2 construct: purchased BPS Bioscience, Inc
T2 sequence (Q96DB2 1-347): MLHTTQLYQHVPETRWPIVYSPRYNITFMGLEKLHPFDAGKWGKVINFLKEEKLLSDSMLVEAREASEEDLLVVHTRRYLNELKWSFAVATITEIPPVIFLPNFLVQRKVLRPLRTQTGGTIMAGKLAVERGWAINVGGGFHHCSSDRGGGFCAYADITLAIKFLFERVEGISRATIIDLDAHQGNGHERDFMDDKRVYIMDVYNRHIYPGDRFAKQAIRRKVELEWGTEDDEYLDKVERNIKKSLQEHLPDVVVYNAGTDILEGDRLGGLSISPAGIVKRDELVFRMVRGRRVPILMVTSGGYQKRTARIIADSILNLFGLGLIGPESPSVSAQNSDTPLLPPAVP
Source text: as §1, §2, §3

[3] = target: T3, recombinant human HDAC1 (Homo sapiens, UniProt Q13547); experiment: as above; assay type: biochemical; conditions: class-I
T3 construct: purchased BPS Bioscience, Inc
T3 sequence (Q13547 whole entry): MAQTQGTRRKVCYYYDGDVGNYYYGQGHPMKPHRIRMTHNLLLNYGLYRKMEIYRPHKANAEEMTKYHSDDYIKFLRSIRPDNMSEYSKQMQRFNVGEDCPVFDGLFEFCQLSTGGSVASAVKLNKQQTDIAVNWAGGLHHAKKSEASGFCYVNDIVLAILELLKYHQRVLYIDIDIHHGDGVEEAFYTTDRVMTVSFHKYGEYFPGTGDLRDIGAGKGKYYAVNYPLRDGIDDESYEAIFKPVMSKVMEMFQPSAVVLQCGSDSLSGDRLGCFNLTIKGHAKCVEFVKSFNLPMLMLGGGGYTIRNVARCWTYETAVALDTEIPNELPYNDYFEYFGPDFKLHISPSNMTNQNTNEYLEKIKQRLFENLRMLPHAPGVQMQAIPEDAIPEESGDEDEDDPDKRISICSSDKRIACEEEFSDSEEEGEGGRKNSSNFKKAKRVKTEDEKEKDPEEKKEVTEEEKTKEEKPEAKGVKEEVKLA
Source text: as §1, §2, §3

[4] = target: T4, recombinant human HDAC6 (Homo sapiens, UniProt Q9UBN7); experiment: as above; assay type: biochemical; conditions: class-IIb
T4 construct: purchased BPS Bioscience, Inc
T4 sequence (Q9UBN7 1-1215): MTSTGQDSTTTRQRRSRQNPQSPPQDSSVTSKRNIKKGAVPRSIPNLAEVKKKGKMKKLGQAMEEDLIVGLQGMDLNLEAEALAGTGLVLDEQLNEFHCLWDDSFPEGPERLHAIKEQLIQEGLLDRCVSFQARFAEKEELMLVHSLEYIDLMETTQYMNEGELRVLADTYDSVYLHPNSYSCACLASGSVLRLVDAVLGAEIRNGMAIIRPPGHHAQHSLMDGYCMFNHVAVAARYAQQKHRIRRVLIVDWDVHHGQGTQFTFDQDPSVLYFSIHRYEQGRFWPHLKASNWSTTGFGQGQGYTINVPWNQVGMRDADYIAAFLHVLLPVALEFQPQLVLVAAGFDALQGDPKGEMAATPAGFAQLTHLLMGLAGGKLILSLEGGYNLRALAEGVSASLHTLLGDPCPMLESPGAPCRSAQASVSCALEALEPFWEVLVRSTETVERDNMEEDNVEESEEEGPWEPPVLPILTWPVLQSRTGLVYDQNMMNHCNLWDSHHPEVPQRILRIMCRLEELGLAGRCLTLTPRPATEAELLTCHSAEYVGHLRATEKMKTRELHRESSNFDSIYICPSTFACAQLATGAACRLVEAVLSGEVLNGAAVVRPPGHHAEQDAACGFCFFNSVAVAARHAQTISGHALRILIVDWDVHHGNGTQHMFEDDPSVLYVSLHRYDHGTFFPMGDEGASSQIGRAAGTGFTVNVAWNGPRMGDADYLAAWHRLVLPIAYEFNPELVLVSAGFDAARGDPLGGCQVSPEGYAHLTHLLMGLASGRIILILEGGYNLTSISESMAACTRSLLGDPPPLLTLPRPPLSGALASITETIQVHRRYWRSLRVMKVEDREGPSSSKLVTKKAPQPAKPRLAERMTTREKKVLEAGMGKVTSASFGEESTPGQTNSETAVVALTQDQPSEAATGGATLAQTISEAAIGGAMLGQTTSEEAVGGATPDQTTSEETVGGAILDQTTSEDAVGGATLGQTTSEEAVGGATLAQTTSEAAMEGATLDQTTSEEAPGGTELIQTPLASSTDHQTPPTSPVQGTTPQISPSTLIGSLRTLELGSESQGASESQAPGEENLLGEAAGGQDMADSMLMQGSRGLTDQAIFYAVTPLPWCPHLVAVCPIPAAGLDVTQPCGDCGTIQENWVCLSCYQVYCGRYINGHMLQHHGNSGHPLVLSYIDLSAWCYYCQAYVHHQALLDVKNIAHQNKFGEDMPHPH
Source text: as §1, §2, §3

[5] = target: T5, recombinant human HDAC4 (Homo sapiens, UniProt P56524); experiment: as above; assay type: biochemical
T5 construct: purchased BPS Bioscience, Inc
T5 sequence (P56524 whole entry): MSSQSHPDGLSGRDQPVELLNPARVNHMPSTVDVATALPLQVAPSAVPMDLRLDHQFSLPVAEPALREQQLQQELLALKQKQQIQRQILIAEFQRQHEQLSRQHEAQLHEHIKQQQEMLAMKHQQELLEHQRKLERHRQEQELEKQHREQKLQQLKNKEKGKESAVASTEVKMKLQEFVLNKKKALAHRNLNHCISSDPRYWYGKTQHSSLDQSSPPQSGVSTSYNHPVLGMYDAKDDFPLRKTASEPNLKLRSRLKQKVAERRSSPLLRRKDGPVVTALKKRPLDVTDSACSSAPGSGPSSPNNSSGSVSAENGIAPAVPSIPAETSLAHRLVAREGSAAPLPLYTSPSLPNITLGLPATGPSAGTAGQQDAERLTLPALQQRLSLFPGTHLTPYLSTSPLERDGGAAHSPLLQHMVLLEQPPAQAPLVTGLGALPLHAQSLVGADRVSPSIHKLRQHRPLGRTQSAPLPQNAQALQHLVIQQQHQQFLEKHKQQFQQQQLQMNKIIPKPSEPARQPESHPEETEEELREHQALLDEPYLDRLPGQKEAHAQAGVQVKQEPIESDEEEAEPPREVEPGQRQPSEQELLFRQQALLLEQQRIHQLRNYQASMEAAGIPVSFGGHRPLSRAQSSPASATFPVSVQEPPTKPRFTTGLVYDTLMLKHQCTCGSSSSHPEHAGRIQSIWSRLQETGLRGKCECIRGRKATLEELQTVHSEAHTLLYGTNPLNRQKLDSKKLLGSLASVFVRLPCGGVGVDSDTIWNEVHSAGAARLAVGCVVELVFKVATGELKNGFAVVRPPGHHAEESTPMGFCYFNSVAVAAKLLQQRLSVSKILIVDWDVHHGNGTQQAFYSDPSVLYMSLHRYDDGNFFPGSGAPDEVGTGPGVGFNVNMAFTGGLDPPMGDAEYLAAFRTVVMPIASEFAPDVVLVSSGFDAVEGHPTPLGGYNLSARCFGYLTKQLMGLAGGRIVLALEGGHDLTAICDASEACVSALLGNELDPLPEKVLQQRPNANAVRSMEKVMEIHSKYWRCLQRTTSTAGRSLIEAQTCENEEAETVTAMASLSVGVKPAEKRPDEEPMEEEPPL
Source text: as §1, §2, §3

[6] = tested on: endogenous class-IIa HDACs in HT-29 cells; experiment: Whole-cell assay of endogenous class-IIa HDAC inhibition in HT-29 cells (Boc-Lys-TFA substrate); assay type: cell-based; conditions: Homo sapiens, class-IIa selective substrate Boc-Lys-TFA, ± SEM
Source text: (§4) The next step was to determine the specificity, selectivity and potency of NT376 to class-IIa HDACs against endogenous class-IIa HDACs in HT-29 cells using the class-distinguishing substrates similar to our previous work[23].
as §1, with “The IC50 measurements were performed in triplicates and experiments were repeated twice with known HDAC inhibitors NT160 and SAHA used as positive and negative controls respectively.” left out
(§5) The cell-based HDAC inhibitor assays were performed in HT-29 cells (ATCC). […] The cells were then washed with HDAC Assay Buffer (RPMI 1640 media without phenol red, Gibco, containing 0.1% FBS), re-collected by centrifugation, resuspended in HDAC Assay Buffer, and counted. […] Fluorescent counts were read with a microplate reader at an excitation wavelength of 360 nm and emitted light was detected at 460 nm.

[7] = tested on: endogenous class-I/IIb HDACs in HT-29 cells; experiment: Whole-cell assay of endogenous class-I/IIb HDAC inhibition in HT-29 cells (Boc-Lys-Ac substrate); assay type: cell-based; conditions: Homo sapiens, class-I/IIb selective substrate Boc-Lys-Ac
Source text: as §4
as §1, with “The IC50 measurements were performed in triplicates and experiments were repeated twice with known HDAC inhibitors NT160 and SAHA used as positive and negative controls respectively.” left out
as §5

T1 sequence (Q9UQL6 whole entry, canonical isoform): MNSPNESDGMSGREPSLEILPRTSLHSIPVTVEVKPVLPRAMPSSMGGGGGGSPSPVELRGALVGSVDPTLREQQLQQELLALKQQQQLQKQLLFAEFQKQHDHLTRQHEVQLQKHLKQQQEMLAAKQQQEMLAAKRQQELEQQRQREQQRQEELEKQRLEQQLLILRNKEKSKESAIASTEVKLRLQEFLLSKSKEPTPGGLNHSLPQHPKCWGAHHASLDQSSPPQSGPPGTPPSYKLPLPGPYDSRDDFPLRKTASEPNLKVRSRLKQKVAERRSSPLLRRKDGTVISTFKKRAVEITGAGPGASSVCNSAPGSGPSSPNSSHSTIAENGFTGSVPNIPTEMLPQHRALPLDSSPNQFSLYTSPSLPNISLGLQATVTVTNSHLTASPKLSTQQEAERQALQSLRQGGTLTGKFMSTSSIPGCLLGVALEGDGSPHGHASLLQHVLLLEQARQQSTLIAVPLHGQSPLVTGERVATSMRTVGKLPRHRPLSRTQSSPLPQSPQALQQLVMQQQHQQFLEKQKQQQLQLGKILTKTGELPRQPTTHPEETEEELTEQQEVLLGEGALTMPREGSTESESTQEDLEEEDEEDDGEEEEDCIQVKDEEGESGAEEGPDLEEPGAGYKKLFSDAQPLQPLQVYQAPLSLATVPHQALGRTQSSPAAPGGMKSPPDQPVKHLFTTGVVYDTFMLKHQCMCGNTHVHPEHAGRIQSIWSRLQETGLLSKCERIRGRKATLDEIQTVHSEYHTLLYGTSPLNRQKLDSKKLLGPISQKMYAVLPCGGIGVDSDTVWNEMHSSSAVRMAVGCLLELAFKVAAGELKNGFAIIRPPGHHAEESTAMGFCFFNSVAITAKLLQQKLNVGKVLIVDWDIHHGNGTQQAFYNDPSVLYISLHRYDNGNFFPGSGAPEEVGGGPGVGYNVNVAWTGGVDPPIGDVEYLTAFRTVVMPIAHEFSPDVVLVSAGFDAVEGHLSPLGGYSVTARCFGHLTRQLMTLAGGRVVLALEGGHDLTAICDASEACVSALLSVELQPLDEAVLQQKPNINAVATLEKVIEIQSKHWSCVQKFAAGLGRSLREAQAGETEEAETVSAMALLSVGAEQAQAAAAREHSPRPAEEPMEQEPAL

- IC50 [1]: 0.00285 µM
- IC50 [2]: 4.85 µM
- IC50 [3]: 1.48 µM
- IC50 [4]: 5.03 µM
- IC50 [5]: 0.00126 µM
- IC50 [6]: 0.032 ± 0.0076 µM
- IC50 [7]: > 4 µM
Structure (SMILES): C[C@H](CN(C)Cc1ccccc1)NC(=O)c1ccc(-c2noc(C(F)(F)F)n2)cc1F [NT376, (R)-N-(1-(benzyl(methyl)amino)propan-2-yl)-2-fluoro-4-(5-(trifluoromethyl)-1,2,4-oxadiazol-3-yl)benzamide]
